# Measurements: patent publication US9793566B2, “Aqueous electrolytes for redox flow battery systems” (Battelle Memorial Institute, priority 2015, dated 2017)
# Key:
# [1] = Cyclic voltammetry, redox couple potential; assay type: physicochemical; conditions: neutral aqueous solution
# Procedure: Cyclic voltammetry was performed at 0.05 V/s with a glassy carbon working electrode.
# [2] = Electrolyte stability: repeated cycling overnight, cyclic voltammograms before and after; assay type: physicochemical; conditions: 300 mM DMTU, 0.45 M HCl, no significant peak changes in the cyclic voltammograms
# From the text: Cyclic voltammograms were obtained before and after the overnight test—initial E (V)=0, high E (V)=1, low E (V)=−0.8, initial P/N=P, scan rate (V/s)=0.05, segment=3, sample interval (V)=0.001, quiet time (s)=2, […].
# [3] = Cyclic voltammetry comparison of N-methyl thiourea and N,N′-dimethyl thiourea catholytes; assay type: physicochemical; conditions: 200 mM in 1 M NaCl, scan rate 0.05 V/s
# Procedure: Aqueous catholytes comprising 200 mM MTU and 200 mM DMTU were compared. Each catholyte also included 1 M NaCl. Cyclic voltammetry was performed under the following conditions: initial E (V)=0, high E (V)=1, low E (V)=−0.75, initial P/N=P, scan rate (V/s)=0.05, segment=7, sample interval (V)=0.001, quiet time (s)=2, sensitivity (A/V)=0.001.
# [4] = physchem; conditions: aqueous buffer
SMILES,one electron redox couple [1],stability in acid solutions [2],"kinetics, reversibility and overpotential compared with MTU [3]",solubility [4]
"CC1(C)CC(O)CC(C)(C)N1[O] [HTMPO, 4-hydroxy-2,2,6,6-tetramethylpiperidine 1-oxyl]",0.75 V vs. SHE,–,–,–
"CNC(=S)NC [DMTU, N,N′-dimethyl thiourea]",–,good stability,"better kinetics, with better reversibility and a lower overpotential",~4000 mM
